Test results as given in PubChem BioAssay (NCI).
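These data come from cells grown in 96-well plates and exposed to compound for 48 hours at five concentrations. GI50 marks 50% less growth. TGI marks complete inhibition of growth.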

Tests used:
Test in all cases: growth of human tumour cells (NCI), 48 h
A549 NSCLC = system: A549 NSCLC
K-562 leukemia = system: K-562 leukemia
SNB-75 CNS = system: SNB-75 CNS
A498 renal = system: A498 renal
OVCAR-4 ovarian = system: OVCAR-4 ovarian
CCRF-CEM leukemia = system: CCRF-CEM leukemia
RXF 393 renal = system: RXF 393 renal
SR leukemia = system: SR leukemia
SK-OV-3 ovarian = system: SK-OV-3 ovarian
RPMI-8226 leukemia = system: RPMI-8226 leukemia
OVCAR-8 ovarian = system: OVCAR-8 ovarian
SK-MEL-2 melanoma = system: SK-MEL-2 melanoma
COLO 205 colon = system: COLO 205 colon
HS 578T breast = system: HS 578T breast
HT29 colon = system: HT29 colon
MCF7 breast = system: MCF7 breast
HL-60(TB) leukemia = system: HL-60(TB) leukemia
HCC-2998 colon = system: HCC-2998 colon
SNB-19 CNS = system: SNB-19 CNS
NCI-H226 lung = system: NCI-H226 lung
SW-620 colon = system: SW-620 colon
TK-10 renal = system: TK-10 renal
MDA-MB-435 = system: MDA-MB-435
ACHN renal = system: ACHN renal
UACC-62 melanoma = system: UACC-62 melanoma
PC-3 prostate = system: PC-3 prostate
CAKI-1 renal = system: CAKI-1 renal
SK-MEL-5 melanoma = system: SK-MEL-5 melanoma
BT-549 breast = system: BT-549 breast
MDA-MB-231 breast = system: MDA-MB-231 breast
M14 melanoma = system: M14 melanoma
MALME-3M melanoma = system: MALME-3M melanoma
MOLT-4 leukemia = system: MOLT-4 leukemia
UACC-257 melanoma = system: UACC-257 melanoma
LOX IMVI melanoma = system: LOX IMVI melanoma
SK-MEL-28 melanoma = system: SK-MEL-28 melanoma
NCI-H522 lung = system: NCI-H522 lung
NCI/ADR-RES ovarian = system: NCI/ADR-RES ovarian
SN12C renal = system: SN12C renal
KM12 colon = system: KM12 colon
UO-31 renal = system: UO-31 renal
NCI-H23 lung = system: NCI-H23 lung
OVCAR-3 ovarian = system: OVCAR-3 ovarian
IGROV1 ovarian = system: IGROV1 ovarian
SF-268 CNS = system: SF-268 CNS
EKVX NSCLC = system: EKVX NSCLC
U251 CNS = system: U251 CNS
HCT-116 colon = system: HCT-116 colon
NCI-H460 lung = system: NCI-H460 lung
OVCAR-5 ovarian = system: OVCAR-5 ovarian
HOP-92 NSCLC = system: HOP-92 NSCLC
HCT-15 colon = system: HCT-15 colon
SF-295 CNS = system: SF-295 CNS
SF-539 CNS = system: SF-539 CNS
786-0 renal = system: 786-0 renal
DU-145 prostate = system: DU-145 prostate
T-47D breast = system: T-47D breast
HOP-62 NSCLC = system: HOP-62 NSCLC

SMILES: C[C@H](c1ccc(Cl)cc1[N+](=O)[O-])N1C(=O)c2cc(I)ccc2N=C(OCCCN2CCN(C)CC2)[C@@H]1c1ccc(Cl)cc1
- GI50 (A549 NSCLC): 1.57 µM
- TGI (A549 NSCLC): 3.14 µM
- GI50 (K-562 leukemia): 1.81 µM
- TGI (K-562 leukemia): 4.03 µM
- GI50 (SNB-75 CNS): 1.71 µM
- TGI (SNB-75 CNS): 4.27 µM
- GI50 (A498 renal): 2.08 µM
- TGI (A498 renal): 5.42 µM
- GI50 (OVCAR-4 ovarian): 1.6 µM
- TGI (OVCAR-4 ovarian): 3.15 µM
- GI50 (CCRF-CEM leukemia): 2.18 µM
- TGI (CCRF-CEM leukemia): 5.41 µM
- GI50 (RXF 393 renal): 1.73 µM
- TGI (RXF 393 renal): 3.25 µM
- GI50 (SR leukemia): 1.65 µM
- TGI (SR leukemia): 3.88 µM
- GI50 (SK-OV-3 ovarian): 1.79 µM
- TGI (SK-OV-3 ovarian): 3.24 µM
- GI50 (RPMI-8226 leukemia): 2.33 µM
- TGI (RPMI-8226 leukemia): 6.5 µM
- GI50 (OVCAR-8 ovarian): 1.61 µM
- TGI (OVCAR-8 ovarian): 3.4 µM
- GI50 (SK-MEL-2 melanoma): 2.11 µM
- TGI (SK-MEL-2 melanoma): 4.05 µM
- GI50 (COLO 205 colon): 1.69 µM
- TGI (COLO 205 colon): 3.27 µM
- GI50 (HS 578T breast): 2.02 µM
- TGI (HS 578T breast): 6.47 µM
- GI50 (HT29 colon): 1.91 µM
- TGI (HT29 colon): 3.49 µM
- GI50 (MCF7 breast): 1.64 µM
- TGI (MCF7 breast): 3.26 µM
- GI50 (HL-60(TB) leukemia): 2.44 µM
- TGI (HL-60(TB) leukemia): 4.41 µM

SMILES: CN1CCN(Cc2c[nH]c3c2C(=O)c2c(c(O)c4ccccc4c2O)C3=O)CC1
- GI50 (HCC-2998 colon): 11.2 µM
- TGI (HCC-2998 colon): 23.3 µM
- GI50 (SNB-19 CNS): 22.4 µM
- TGI (SNB-19 CNS): 52 µM
- GI50 (A549 NSCLC): 10.7 µM
- TGI (A549 NSCLC): 25.4 µM
- GI50 (NCI-H226 lung): 16.8 µM
- TGI (NCI-H226 lung): 36.5 µM
- GI50 (SW-620 colon): 12.5 µM
- TGI (SW-620 colon): 25 µM
- GI50 (TK-10 renal): 1.46 µM
- TGI (TK-10 renal): 14.9 µM
- GI50 (K-562 leukemia): 2.82 µM
- TGI (K-562 leukemia): > 100 µM
- GI50 (SNB-75 CNS): 26.6 µM
- TGI (SNB-75 CNS): 55.7 µM
- GI50 (MDA-MB-435): 3.98 µM
- TGI (MDA-MB-435): 16.4 µM
- GI50 (ACHN renal): 11.3 µM
- TGI (ACHN renal): 23.5 µM
- GI50 (UACC-62 melanoma): 16.5 µM
- TGI (UACC-62 melanoma): 31.6 µM
- GI50 (PC-3 prostate): 5.53 µM
- TGI (PC-3 prostate): 21.6 µM
- GI50 (CAKI-1 renal): 3.16 µM
- TGI (CAKI-1 renal): 18.8 µM
- GI50 (OVCAR-4 ovarian): 21.3 µM
- TGI (OVCAR-4 ovarian): 42.6 µM
- GI50 (SK-MEL-5 melanoma): 14 µM
- TGI (SK-MEL-5 melanoma): 26.9 µM
- GI50 (BT-549 breast): 18.6 µM
- TGI (BT-549 breast): 34.5 µM
- GI50 (MDA-MB-231 breast): 7.19 µM
- TGI (MDA-MB-231 breast): 19.9 µM
- GI50 (M14 melanoma): 1.79 µM
- TGI (M14 melanoma): 5.12 µM
- GI50 (MALME-3M melanoma): 12.7 µM
- TGI (MALME-3M melanoma): 29.3 µM
- GI50 (MOLT-4 leukemia): 4.02 µM
- TGI (MOLT-4 leukemia): > 100 µM
- GI50 (CCRF-CEM leukemia): 3.51 µM
- TGI (CCRF-CEM leukemia): 18.5 µM
- GI50 (RXF 393 renal): 6.22 µM
- TGI (RXF 393 renal): 19 µM
- GI50 (UACC-257 melanoma): 15.9 µM
- TGI (UACC-257 melanoma): 33.1 µM
- GI50 (LOX IMVI melanoma): 1.92 µM
- TGI (LOX IMVI melanoma): 3.8 µM
- GI50 (SK-MEL-28 melanoma): 19.6 µM
- TGI (SK-MEL-28 melanoma): 38.3 µM
- GI50 (SK-OV-3 ovarian): 28.4 µM
- TGI (SK-OV-3 ovarian): 55.2 µM
- GI50 (RPMI-8226 leukemia): 3 µM
- TGI (RPMI-8226 leukemia): 26.5 µM
- GI50 (NCI-H522 lung): 14.1 µM
- TGI (NCI-H522 lung): 33.8 µM
- GI50 (NCI/ADR-RES ovarian): 11.7 µM
- TGI (NCI/ADR-RES ovarian): 25.5 µM
- GI50 (SN12C renal): 10.3 µM
- TGI (SN12C renal): 21.9 µM
- GI50 (KM12 colon): 3.46 µM
- TGI (KM12 colon): 15.2 µM
- GI50 (UO-31 renal): 11.2 µM
- TGI (UO-31 renal): 32.4 µM
- GI50 (NCI-H23 lung): 12.9 µM
- TGI (NCI-H23 lung): 26.9 µM
- GI50 (OVCAR-8 ovarian): 6.34 µM
- TGI (OVCAR-8 ovarian): 26 µM
- GI50 (OVCAR-3 ovarian): 11.2 µM
- TGI (OVCAR-3 ovarian): 33.2 µM
- GI50 (IGROV1 ovarian): 3.74 µM
- TGI (IGROV1 ovarian): 23.4 µM
- GI50 (COLO 205 colon): 31.7 µM
- TGI (COLO 205 colon): 70.7 µM
- GI50 (SF-268 CNS): 11.1 µM
- TGI (SF-268 CNS): 23.2 µM
- GI50 (EKVX NSCLC): 13.1 µM
- TGI (EKVX NSCLC): 26.7 µM
- GI50 (HS 578T breast): 17 µM
- TGI (HS 578T breast): 32.8 µM
- GI50 (U251 CNS): 11.1 µM
- TGI (U251 CNS): 27.9 µM
- GI50 (HT29 colon): 26.3 µM
- TGI (HT29 colon): > 100 µM
- GI50 (MCF7 breast): 5.15 µM
- TGI (MCF7 breast): 17.7 µM
- GI50 (HCT-116 colon): 1.92 µM
- TGI (HCT-116 colon): 10.5 µM
- GI50 (HL-60(TB) leukemia): 10.3 µM
- TGI (HL-60(TB) leukemia): 70.4 µM
- GI50 (NCI-H460 lung): 5.42 µM
- TGI (NCI-H460 lung): 17.9 µM
- GI50 (OVCAR-5 ovarian): 18.1 µM
- TGI (OVCAR-5 ovarian): 33.6 µM
- GI50 (HOP-92 NSCLC): 7.09 µM
- TGI (HOP-92 NSCLC): 21.8 µM
- GI50 (HCT-15 colon): 3.46 µM
- TGI (HCT-15 colon): 15.6 µM
- GI50 (SF-295 CNS): 15 µM
- TGI (SF-295 CNS): 35.4 µM

SMILES: Nc1nc(Cl)cc(OCC2(CO)CCC2)n1
- GI50 (SNB-75 CNS): 68.4 µM
- GI50 (EKVX NSCLC): 60.6 µM
- GI50 (HOP-92 NSCLC): 51.3 µM

SMILES: COc1ccc(-n2c(=O)c3[nH]c(=S)[nH]c3n(-c3ccc(OC)cc3)c2=S)cc1
- TGI (HCC-2998 colon): > 100 µM
- TGI (A549 NSCLC): > 100 µM
- TGI (NCI-H226 lung): > 100 µM
- TGI (SF-539 CNS): > 100 µM
- TGI (SW-620 colon): > 100 µM
- TGI (TK-10 renal): > 100 µM
- TGI (K-562 leukemia): > 100 µM
- TGI (786-0 renal): > 100 µM
- TGI (SNB-75 CNS): > 100 µM
- TGI (A498 renal): > 100 µM
- TGI (MDA-MB-435): > 100 µM
- TGI (ACHN renal): > 100 µM
- TGI (UACC-62 melanoma): > 100 µM
- TGI (PC-3 prostate): > 100 µM
- TGI (CAKI-1 renal): > 100 µM
- TGI (OVCAR-4 ovarian): > 100 µM
- TGI (SK-MEL-5 melanoma): > 100 µM
- TGI (BT-549 breast): > 100 µM
- TGI (MDA-MB-231 breast): > 100 µM
- TGI (M14 melanoma): > 100 µM
- TGI (MOLT-4 leukemia): > 100 µM
- TGI (CCRF-CEM leukemia): > 100 µM
- TGI (RXF 393 renal): > 100 µM
- TGI (UACC-257 melanoma): > 100 µM
- TGI (LOX IMVI melanoma): > 100 µM
- TGI (SR leukemia): > 100 µM
- TGI (SK-MEL-28 melanoma): > 100 µM
- TGI (SK-OV-3 ovarian): > 100 µM
- TGI (RPMI-8226 leukemia): > 100 µM
- TGI (NCI-H522 lung): > 100 µM
- TGI (NCI/ADR-RES ovarian): > 100 µM
- TGI (SN12C renal): > 100 µM
- TGI (KM12 colon): > 100 µM
- TGI (UO-31 renal): > 100 µM
- TGI (NCI-H23 lung): > 100 µM
- TGI (OVCAR-8 ovarian): > 100 µM
- TGI (OVCAR-3 ovarian): > 100 µM
- TGI (IGROV1 ovarian): > 100 µM
- TGI (SK-MEL-2 melanoma): > 100 µM
- TGI (COLO 205 colon): > 100 µM
- TGI (SF-268 CNS): > 100 µM
- TGI (EKVX NSCLC): > 100 µM
- TGI (U251 CNS): > 100 µM
- TGI (HT29 colon): > 100 µM
- TGI (MCF7 breast): > 100 µM
- TGI (HCT-116 colon): > 100 µM
- TGI (HL-60(TB) leukemia): > 100 µM
- TGI (DU-145 prostate): > 100 µM
- TGI (T-47D breast): > 100 µM
- TGI (NCI-H460 lung): > 100 µM
- TGI (OVCAR-5 ovarian): > 100 µM
- TGI (HOP-92 NSCLC): > 100 µM
- TGI (HCT-15 colon): > 100 µM
- TGI (SF-295 CNS): > 100 µM
- TGI (HOP-62 NSCLC): > 100 µM
